Laboratory results taken from patent US20150253323A1, “METHODS AND KITS FOR HIGH THROUGHPUT SCREENING FOR COMPOUNDS TARGETING DNA-BINDING AND RNA-BINDING PROTEINS” (The Florida International University Board of Trustees, priority 2014, published 2015).
Entries after “also recorded” stand apart in the source; their conditions may differ. Structures can show the parent of a compound that is named as a salt. Starred links: 1 amine or outer side, 2 acyl side, 3 side chain; linkers in the order of their positions; H or OH if unused. Positions of bridges follow the written chain, without caps; N, C: chain ends. Non-standard residues stand in square brackets, D forms with d. Residues, ends and D or L forms follow the SMILES beside them. Chains are numbered I, II in the order given. Actinocin(9to1) = Cc1c2oc3c(C)ccc(C(=O)[*:1])c3nc-2c(C(=O)[*:2])c(N)c1=O; NMeV = CN[C@H](C(=O)O)C(C)C; Sar = CNCC(=O)O

T1: HMGA2 (high mobility group protein AT-hook 2) (mammalian, UniProt P52926 P52926:2-109)
T1 sequence: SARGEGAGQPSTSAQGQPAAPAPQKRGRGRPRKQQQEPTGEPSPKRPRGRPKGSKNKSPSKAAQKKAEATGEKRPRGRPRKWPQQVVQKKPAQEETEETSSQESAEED

B1: FL842/FL843 duplex (dsDNA)
DNA 1: CCCCCCATATTCGCGATTATTGCGC
DNA 2: GCGCAATAATCGCGAATATGGGGGG

Tests used:
HMGA2-FL814 interaction = assay: PDI-ELISA for HMGA2 binding to DNA oligomer FL814; parameters: species or system mammalian; conditions: for OD450 of the PDI-ELISA in the presence of the compound: 100 nM compound, 100 nM FL814, 1 μM HMGA2, 2×SSCT, OD450 without drug 1.44; for IC50: 25° C., read-out: IC50 for inhibition of binding of HMGA2 to DNA; for inhibition of HMGA2-FL814 interactions: compound at 100 nM in 2×SSCT, FIG. 12 / Table 1
3T3-L1 cells = assay: Oil Red O staining of differentiated 3T3-L1 cells (adipogenesis); format: cell-based, mouse; conditions: 3T3-L1, Oil Red O absorbance 492 nm; read-out: inhibition IC50 of neutral lipids in the differentiated cells
Protocol: Mouse pre-adipocytes (3T3-L1 cells) were a gracious gift from Dr Jun Liu at Mayo Clinic. 3T3-L1 cells were maintained in DMEM supplemented with 10% FBS, 100 U/ml penicillin, 100 μg/ml streptomycin and 5 μg/ml plasmocin. The cells were grown under normal culture conditions of 5% CO2 and humidity. Cells were maintained for a minimum of three passages in linear growth prior to differentiation. To differentiate the 3T3-L1 pre-adipocytes into adipocytes, we used the protocol previously described by Zebisch et al. (Zebisch, K., et al. (2012)). Briefly, 3T3-L1 pre-adipocytes were sub-cultured in DMEM supplemented with 5% newborn calf serum, 100 U/ml penicillin, 100 μg/ml streptomycin and 5 μg/ml plasmocin (Basal Media 1—BM1). The cells were then plated at 6×10^5 cells per dish in 35-mm dishes, 3×10^5 cells per well in a 12-well plate, 1.5×10^5 cells in a 24-well plate or 3.0×10^4 cells per well in a 96-well plate. The cells were grown to confluency with BM1 replacement every other day. Following 48 h of confluency, 3T3-L1 cells were treated with Differentiation medium 1 (DM1), which is BM1 supplemented with […] iso-butyl-methylxanthine, 0.25 μM dexamethasone, 1 μg/ml insulin and 2 μg/ml rosiglitazone. After 48 h, the medium was replaced with differentiation medium 2 (DM2); this is BM1 supplemented with 1 μg/ml insulin. On the seventh day, the cells were placed in DMEM with FBS. The cells were cultured to the date indicated in the experiments below with media changes every other day. The presence of adipogenesis was confirmed by microscopic detection of adipose bodies in the cells. For our experiments, only cultures with >80% differentiation were used.
Following differentiation and drug treatment, Oil Red O staining was used to qualitatively and quantitatively assess the level of neutral lipids in the differentiated cells. For qualitative assessment by phase microscopy, cells were washed twice in PBS and then fixed with 10% formalin for 30 min at room temperature. Oil Red O was reconstituted at 300 mg per 100 ml of isopropanol. The Oil Red O solution was prepared for staining by adding 20 ml of deionized water to 30 ml of the Oil Red O stock solution and filtered. The cells were then incubated for 5 min in 60% isopropanol. The Oil Red O working solution was then added to cells for 5 min. The monolyers were then rinsed clean with deionized water. The cells were then visualized using phase microscopy on the EVOS XL Core microscope. For quantitative assessment of adipogenesis in 96-well formats, cells were lysed in dimethylsulfoxide (DMSO) following the water wash of Oil Red O stained cells. The DMSO released the intracellular Oil Red O into the solution. The absorbance (492 nm) was measured using the BioTek Synergy H1 plate reader.

[1] = molecular target: T1, HMGA2 (high mobility group protein …); assay: ELONA; duplex without hairpin loop; 100 nM DNA, 1 uM HMGA2; binding enhanced by TMPyP4; conditions: tags: purified as in Cui et al. 2007

Molecule	OD450 of the PDI-ELISA in the presence of the compound (HMGA2-FL814 interaction)	also measured
Cl.NCc1ccc2ccc3cccc4ccc1c2c34 [1-Pyrenemethylamine hydrochloride, 1-pyrenemethylamine hydrochloride]	1.36	
Cc1c2oc3c(C)ccc(C(=O)N[C@@H]4C(=O)N[C@H](C(C)C)C(=O)N5CCC[C@H]5C(=O)N(C)CC(=O)N(C)[C@@H](C(C)C)C(=O)O[C@@H]4C)c3nc-2c(C(=O)N[C@@H]2C(=O)N[C@H](C(C)C)C(=O)N3CCC[C@H]3C(=O)N(C)CC(=O)N(C)[C@@H](C(C)C)C(=O)O[C@@H]2C)c(N)c1=O [Actinomycin D, actinomycin D] (I: T[dV]P[Sar][NMeV] / II: T[dV]P[Sar][NMeV]; ester I:1-I:C, II:1-II:C; linker I:N-II:N via Actinocin(9to1))	1.03	
COc1ccc2cc3[n+](cc2c1OC)CCc1cc2c(cc1-3)OCO2 [Berberine chloride, berberine chloride]	0.91	
CC(=O)NCC(=O)O.CC(=O)NCC(=O)O.N=C(N)c1ccc(N=NNc2ccc(C(=N)N)cc2)cc1 [Berenil, berenil]	0.52	
C=C1C(=O)OC(CCCCCCCC)C1C(=O)O (centres unmarked) [C-75]		IC50 (3T3-L1 cells): 3700 ± 800 nM
COC1C(O)CC(OC2CC(Oc3cc4cc5c(c(O)c4c(O)c3C)C(=O)[C@@H](OC3CC(OC4CC(OC6CC(C)(O)C(OC(C)=O)C(C)O6)C(O)C(C)O4)C(O)C(C)O3)[C@H]([C@H](OC)C(=O)[C@@H](O)[C@@H](C)O)C5)OC(C)C2OC(C)=O)OC1C (some centres unmarked) [Chromomycin, chromomycin]	1.3	
COc1cc2cc3c4cc(OC)c(OC)cc4cc[n+]3c(C)c2cc1OC.[Cl-] [Coralyne chloride, coralyne chloride]	1.38	
N=C(N)c1ccc(-c2cc3ccc(C(=N)N)cc3[nH]2)cc1 [DAPI]	0.161	IC50 (HMGA2-FL814 interaction): 60.6 ± 8.5 nM; inhibition of HMGA2-FL814 interactions (HMGA2-FL814 interaction): potently inhibit; also recorded: completely inhibit
CCN1/C(=C/C=C/C=C/c2oc3ccccc3[n+]2CC)Oc2ccccc21.[I-] [DODC]	1.3	
Cc1c2ccncc2c(C)c2c1[nH]c1ccccc12 [Ellipticine]	1.39	
CN1CCN(c2ccc3[nH]c(-c4ccc5[nH]c(-c6ccc(O)cc6)nc5c4)nc3c2)CC1 [Hoechst 33258]	0.166	IC50 (HMGA2-FL814 interaction): 73 ± 9.6 nM; inhibition of HMGA2-FL814 interactions (HMGA2-FL814 interaction): potently inhibit; also recorded: completely inhibit
CN(C)c1ccc(C(=C2C=CC(=[N+](C)C)C=C2)c2ccc([N+](C)(C)C)cc2)cc1.[Cl-].[Cl-] [Methyl Green, methyl green]	1.06	
CN(C)c1ccc2nc3ccc(=[N+](C)C)cc-3sc2c1 [Methylene Blue, methylene blue]	0.93	
O=C1c2ccc3c4ccc5c6c(ccc(c7ccc(c2c37)C(=O)N1CCN1CCCCC1)c64)C(=O)N(CCN1CCCCC1)C5=O [PIPER, N,N′-bis[2-(1-piperidino)ethyl]-3,4,9,10-perylenetetracarboxylic diimide]	1.27	
N=C(N)c1ccc(OCCCCCOc2ccc(C(=N)N)cc2)cc1 [Pentamidine, pentamidine isethionate salt]	0.65	
Nc1ccc2cc3ccc(N)cc3nc2c1 [Proflavine hemisulfate, proflavine hemisulfate]	1.49	
Nc1ccc2cc3ccc(N)cc3nc2c1 [Proflavine hydrochloride, proflavine hydrochloride]		OD450 of the PDI-ELISA in the presence of the compound (HMGA2-FL814 interaction; hydrochloride): 1.5
CCN(CC)CCCC(C)Nc1c2ccc(Cl)cc2nc2ccc(OC)cc12 (centres unmarked) [Quinacrine dihydrochloride, quinacrine dihydrochloride]	1.46	
C[n+]1ccccc1-c1c2nc(c(-c3cccc[n+]3C)c3ccc([nH]3)c(-c3cccc[n+]3C)c3nc(c(-c4cccc[n+]4C)c4ccc1[nH]4)C=C3)C=C2.[Cl-].[Cl-].[Cl-].[Cl-] [TMPyP2]	1.7	enhancement of HMGA2 binding to FL814 (OD450) (HMGA2-FL814 interaction; titration, 100 nM FL814, 1 μM HMGA2, FIG. 14): not able to stimulate
CN1C(=Cc2cc[n+](C)c3ccccc23)Sc2ccccc21 [Thiazole orange, thiazole orange]	1.83	
COc1cccc2c1C(=O)c1c(O)c3c(c(O)c1C2=O)C[C@@](O)(C(C)=O)C[C@@H]3O[C@H]1C[C@H](NCc2ccc(CN[C@H]3C[C@H](O[C@H]4C[C@](O)(C(C)=O)Cc5c(O)c6c(c(O)c54)C(=O)c4c(OC)cccc4C6=O)O[C@@H](C)[C@H]3O)cc2)[C@H](O)[C@H](C)O1 [WP631]	0.21	IC50 (HMGA2-FL814 interaction): 41 ± 4.5 nM; inhibition of HMGA2-FL814 interactions (HMGA2-FL814 interaction): potently inhibit; also recorded: completely inhibit
COc1cccc2c1C(=O)c1c(O)c3c(c(O)c1C2=O)C[C@@](O)(C(C)=O)C[C@@H]3O[C@H]1C[C@H](NCc2cccc(CN[C@@H]3C[C@@H](O[C@H]4C[C@](O)(C(C)=O)Cc5c(O)c6c(c(O)c54)C(=O)c4c(OC)cccc4C6=O)O[C@H](C)[C@@H]3O)c2)[C@H](O)[C@H](C)O1 [WP762]	0.56	IC50 (HMGA2-FL814 interaction): 115 ± 19.7 nM; inhibition of HMGA2-FL814 interactions (HMGA2-FL814 interaction): potently inhibit
O=c1cc(-c2ccccc2)oc2c1ccc1ccccc12 [a-Naphthoflavone, α-naphthoflavone]	1.91	
O=c1cc(-c2ccccc2)oc2ccc3ccccc3c12 [b-Naphthoflavone, β-naphthoflavone]	1.56	
N-methyl mesoporphyrin [NMM 580]	1.62	
B1		binding result [1]: binds
